What all share (assay): Transient transfection (transactivation) assay in CV-1 cells, GAL4-PPAR chimera, luciferase reporter
Common to all, as to type: cell-based

One test concerns the target T1, PPAR delta (Homo sapiens, UniProt Q03181).
T1 construct: expressed in transfected cells; host or cells: CV-1 cells
T1 sequence (Q03181 211-439 limits assumed): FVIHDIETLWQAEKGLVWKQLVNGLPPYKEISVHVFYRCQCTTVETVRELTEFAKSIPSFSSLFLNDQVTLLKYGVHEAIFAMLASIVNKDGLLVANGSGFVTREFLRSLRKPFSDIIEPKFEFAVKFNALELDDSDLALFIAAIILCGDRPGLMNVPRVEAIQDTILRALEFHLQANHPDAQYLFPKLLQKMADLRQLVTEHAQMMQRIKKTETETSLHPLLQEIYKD

The target in the next test is T2, PPAR gamma (Homo sapiens, UniProt P37231).
T2 construct: expressed in transfected cells; host or cells: CV-1 cells
T2 sequence (P37231 238-503 limits assumed): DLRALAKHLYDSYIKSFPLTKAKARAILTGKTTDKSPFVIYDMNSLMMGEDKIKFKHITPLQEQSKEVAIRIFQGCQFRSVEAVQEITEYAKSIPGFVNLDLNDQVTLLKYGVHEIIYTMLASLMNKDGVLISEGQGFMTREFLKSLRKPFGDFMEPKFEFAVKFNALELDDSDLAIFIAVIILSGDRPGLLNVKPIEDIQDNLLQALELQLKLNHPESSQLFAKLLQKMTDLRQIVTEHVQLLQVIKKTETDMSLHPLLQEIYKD

The target in a further test is T3, PPAR alpha (Homo sapiens, UniProt Q07869).
T3 construct: expressed in transfected cells; host or cells: CV-1 cells
T3 sequence (Q07869 239-466 limits assumed): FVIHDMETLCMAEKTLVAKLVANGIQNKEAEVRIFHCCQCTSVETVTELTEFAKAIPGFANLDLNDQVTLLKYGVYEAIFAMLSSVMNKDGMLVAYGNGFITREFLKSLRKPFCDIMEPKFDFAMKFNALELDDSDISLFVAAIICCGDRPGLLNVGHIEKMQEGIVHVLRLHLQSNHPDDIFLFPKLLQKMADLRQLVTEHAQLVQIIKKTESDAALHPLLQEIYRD
Summed up: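 EC50 and efficacy come from a luciferase read-out after 20-24 hours of compound exposure (vehicle 1% DMSO) in transiently transfected CV-1 cells. These cells express a GAL4-PPAR ligand-binding-domain chimera plus a reporter with four or five GAL4 binding sites, and are kept in phenol-red free DME with 5% delipidated calf serum.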

Our source for the EC50 values is patent US20050234046A1 (Kalypsys, Inc., priority 2004, published 2005).

Each structure is given as a SMILES string.

Description for PPAR gamma: Compounds may be screened for functional potency in transient transfection assays in CV-1 cells or other cell types for their ability to activate the PPAR subtypes (transactivation assay). A previously established chimeric receptor system was utilized to allow comparison of the relative transcriptional activity of the receptor subtypes on the same synthetic response element and to prevent endogenous receptor activation from complicating the interpretation of results. […] The ligand binding domains for murine and human PPAR-alpha, PPAR-gamma, and PPAR-delta are each fused to the yeast transcription factor GAL4 DNA binding domain. CV-1 cells were transiently transfected with expression vectors for the respective PPAR chimera along with a reporter construct containing four or five copies of the GAL4 DNA binding site driving expression of luciferase. After 8-16 h, the cells are replated into multi-well assay plates and the media is exchanged to phenol-red free DME medium supplemented with 5% delipidated calf serum. 4 hours after replating, cells were treated with either compounds or 1% DMSO for 20-24 hours. Luciferase activity was then assayed with Britelite (Perkin Elmer) following the manufacturer's protocol and measured with either the Perkin Elmer Viewlux or Molecular Devices Acquest Xsee, for example, Kliewer, S. A., et. al. Cell 1995, 83, 813-819). Rosiglitazone is used as a positive control in the hPPAR-γ assay. Wy-14643 and GW7647 is used as a positive control in the hPPAR-α assay. GW501516 is used as the positive control in the hPPAR-δ assay.

The EC50 is the midpoint of the concentration-response curve. Low values mean a more potent agent, high ones a less potent agent. Consider `Cc1ccc(N2CCN(S(=O)(=O)c3cccc(CC(=O)O)c3)CC2)c(C)c1` [Example 117, {3-[4-(2,4-Dimethyl-phenyl)-piperazine-1-sulfonyl]-phenyl}-acetic acid], for which the values for the concentration for a half-maximal effect (EC50) at PPAR delta, on PPAR gamma and on PPAR alpha were less than 5 µM, 5 to 100 µM and more than 100 µM, respectively.

Take `Cc1cccc(N2CCN(S(=O)(=O)c3cccc(CC(=O)O)c3)CC2C)c1` (stereo not drawn) [Example 118, [3-(3-methyl-4-m-tolyl-piperazine-1-sulfonyl)-phenyl]-acetic acid]: the half-maximal effective concentration (EC50) at PPAR delta was 5 to 100 µM; on PPAR gamma it was 5 to 100 µM; at PPAR alpha, more than 100 µM.

Take `Cc1ccc(N2CCN(S(=O)(=O)c3cccc(CC(=O)O)c3)CC2)cc1C` [Example 119, {3-[4-(3,4-Dimethyl-phenyl)-piperazine-1-sulfonyl]-phenyl}-acetic acid]: the EC50 on PPAR delta, at PPAR gamma and at PPAR alpha was 5 to 100 µM each time.

As to `Cc1ccc(Cl)cc1N1CCN(S(=O)(=O)c2cccc(CC(=O)O)c2)CC1` [Example 120, {3-[4-(5-Chloro-2-methyl-phenyl)-piperazine-1-sulfonyl]-phenyl}-acetic acid], the 50% effective concentration (EC50) at PPAR delta, on PPAR gamma and at PPAR alpha was more than 100 µM throughout.

With `O=C(O)Cc1cccc(S(=O)(=O)N2CCN(CCc3ccccc3)CC2)c1` [Example 121, [3-(4-phenethyl-piperazine-1-sulfonyl)-phenyl]-acetic acid], the 50% effective concentration (EC50) on PPAR delta, on PPAR gamma and on PPAR alpha was more than 100 µM each time.

Consider `N#Cc1ccc(N2CCN(S(=O)(=O)c3cccc(CC(=O)O)c3)CC2)cc1` [Example 122, {3-[4-(4-Cyano-phenyl)-piperazine-1-sulfonyl]-phenyl}-acetic acid], for which the EC50 was 5 to 100 µM on PPAR delta, more than 100 µM on PPAR gamma and more than 100 µM on PPAR alpha.

As for `O=C(O)Cc1cccc(S(=O)(=O)N2CCN(Cc3ccc(F)cc3)CC2)c1` [Example 123, {3-[4-(4-Fluoro-benzyl)-piperazine-1-sulfonyl]-phenyl}-acetic acid], the values for the EC50 at PPAR delta, at PPAR gamma and at PPAR alpha were 5 to 100 µM, 5 to 100 µM and more than 100 µM, respectively.

Regarding `COc1ccc(N2CCN(S(=O)(=O)c3cccc(CC(=O)O)c3)CC2)cc1` [Example 124, {3-[4-(4-Methoxy-phenyl)-piperazine-1-sulfonyl]-phenyl}-acetic acid], the values for the EC50 at PPAR delta, on PPAR gamma and at PPAR alpha were 5 to 100 µM, 5 to 100 µM and more than 100 µM, respectively.

As to `O=C(O)Cc1cccc(S(=O)(=O)N2CCN(c3cccc(Br)c3)CC2)c1` [Example 125, {3-[4-(3-Bromo-phenyl)-piperazine-1-sulfonyl]-phenyl}-acetic acid], the concentration giving a half-maximal response (EC50) at PPAR delta, at PPAR gamma and at PPAR alpha was 5 to 100 µM in each case.

`CC(C)(C)c1ccc(N2CCN(S(=O)(=O)c3cccc(CC(=O)O)c3)CC2)cc1` [Example 126, {3-[4-(4-tert-butyl-phenyl)-piperazine-1-sulfonyl]-phenyl}-acetic acid]: the concentration for a half-maximal effect (EC50) was 5 to 100 µM at PPAR delta, less than 5 µM at PPAR gamma and 5 to 100 µM at PPAR alpha.

In the case of `COc1ccc(N2CCN(S(=O)(=O)c3cccc(CC(=O)O)c3)CC2)cc1OC` [Example 127, {3-[4-(3,4-Dimethoxy-phenyl)-piperazine-1-sulfonyl]-phenyl}-acetic acid], the half-maximal effective concentration (EC50) at PPAR delta, at PPAR gamma and at PPAR alpha was more than 100 µM each time.

On to `O=C(O)Cc1cccc(S(=O)(=O)N2CCN(c3ccc(C(F)(F)F)cc3[N+](=O)[O-])CC2)c1` [Example 128, {3-[4-(2-Nitro-4-trifluoromethyl-phenyl)-piperazine-1-sulfonyl]-phenyl}-acetic acid], for which the concentration for a half-maximal effect (EC50) at PPAR delta, at PPAR gamma and on PPAR alpha was 5 to 100 µM each time.

As to `COc1ccccc1N1CCN(S(=O)(=O)c2cccc(CC(=O)O)c2)CC1` [Example 129, {3-[4-(2-Methoxy-phenyl)-piperazine-1-sulfonyl]-phenyl}-acetic acid], the concentration for a half-maximal effect (EC50) at PPAR delta, on PPAR gamma and on PPAR alpha was more than 100 µM throughout.

For the compound `O=C(O)Cc1cccc(S(=O)(=O)N2CCN(C3CCCCC3)CC2)c1` [Example 130, [3-(4-Cyclohexyl-piperazine-1-sulfonyl)-phenyl]-acetic acid], the values for the concentration giving a half-maximal response (EC50) at PPAR delta, at PPAR gamma and at PPAR alpha were more than 100 µM, 5 to 100 µM and more than 100 µM, respectively.

Turning to `Cc1ccc(C)c(N2CCN(S(=O)(=O)c3cccc(CC(=O)O)c3)CC2)c1` [Example 131, {3-[4-(2,5-Dimethyl-phenyl)-piperazine-1-sulfonyl]-phenyl}-acetic acid], the EC50 on PPAR delta is 5 to 100 µM; at PPAR gamma, 5 to 100 µM; on PPAR alpha, more than 100 µM.

In the case of `O=C(O)Cc1cccc(S(=O)(=O)N2CCN(CC3CCCCC3)CC2)c1` [Example 132, [3-(4-Cyclohexylmethyl-piperazine-1-sulfonyl)-phenyl]-acetic acid], the EC50 at PPAR delta is more than 100 µM; on PPAR gamma, 5 to 100 µM; on PPAR alpha it was more than 100 µM.

For the compound `N#Cc1ccccc1N1CCN(S(=O)(=O)c2cccc(CC(=O)O)c2)CC1` [Example 133, {3-[4-(2-Cyano-phenyl)-piperazine-1-sulfonyl]-phenyl}-acetic acid], the EC50 at PPAR delta, at PPAR gamma and at PPAR alpha was more than 100 µM in each case.

As to `O=C(O)Cc1cccc(S(=O)(=O)N2CCN(C(c3ccccc3)c3ccc(Cl)cc3)CC2)c1` (stereo not drawn) [Example 134, (3-{4-[(4-Chloro-phenyl)-phenyl-methyl]-piperazine-1-sulfonyl}-phenyl)-acetic, acid], the values for the concentration for a half-maximal effect (EC50) on PPAR delta, on PPAR gamma and at PPAR alpha were more than 100 µM, 5 to 100 µM and more than 100 µM, respectively.

For the compound `O=C(O)Cc1cccc(S(=O)(=O)N2CCN(c3ccc([N+](=O)[O-])cc3)CC2)c1` [Example 135, {3-[4-(4-Nitro-phenyl)-piperazine-1-sulfonyl]-phenyl}-acetic acid], the EC50 was 5 to 100 µM on PPAR delta, more than 100 µM on PPAR gamma and more than 100 µM at PPAR alpha.

Turning to `O=C(O)Cc1cccc(S(=O)(=O)N2CCN(C(=O)c3ccco3)CC2)c1` [Example 136, {3-[4-(Furan-2-carbonyl)-piperazine-1-sulfonyl]-phenyl}-acetic acid], the EC50 on PPAR delta, at PPAR gamma and on PPAR alpha was more than 100 µM each time.

Consider `COc1cccc(N2CCN(S(=O)(=O)c3cccc(CC(=O)O)c3)CC2)c1` [Example 137, {3-[4-(3-Methoxy-phenyl)-piperazine-1-sulfonyl]-phenyl}-acetic acid], for which the concentration giving a half-maximal response (EC50) on PPAR delta, at PPAR gamma and on PPAR alpha was more than 100 µM in each case.

For `O=C(O)Cc1cccc(S(=O)(=O)N2CCN(C(c3ccc(F)cc3)c3ccc(F)cc3)CC2)c1` [Example 138, (3-{4-[Bis-(4-fluoro-phenyl)-methyl]-piperazine-1-sulfonyl}-phenyl)-acetic acid], the EC50 at PPAR delta is more than 100 µM; on PPAR gamma it was 5 to 100 µM; at PPAR alpha, more than 100 µM.

As to `O=C(O)Cc1cccc(S(=O)(=O)N2CCN(c3cccc(Cl)c3)CC2)c1` [Example 139, {3-[4-(3-Chloro-phenyl)-piperazine-1-sulfonyl]-phenyl}-acetic acid], the EC50 at PPAR delta is 5 to 100 µM; on PPAR gamma, 5 to 100 µM; at PPAR alpha, more than 100 µM.

As for `O=C(O)Cc1cccc(S(=O)(=O)N2CCN(c3ccccc3Cl)CC2)c1` [Example 140, {3-[4-(2-Chloro-phenyl)-piperazine-1-sulfonyl]-phenyl}-acetic acid], the half-maximal effective concentration (EC50) on PPAR delta, at PPAR gamma and on PPAR alpha was more than 100 µM throughout.

For the compound `O=C(O)Cc1cccc(S(=O)(=O)N2CCN(c3ccccc3F)CC2)c1` [Example 141, {3-[4-(2-Fluoro-phenyl)-piperazine-1-sulfonyl]-phenyl}-acetic acid], the EC50 at PPAR delta was 5 to 100 µM; on PPAR gamma, more than 100 µM; on PPAR alpha, more than 100 µM.

Regarding `CCOc1ccccc1N1CCN(S(=O)(=O)c2cccc(CC(=O)O)c2)CC1` [Example 142, {3-[4-(2-Ethoxy-phenyl)-piperazine-1-sulfonyl]-phenyl}-acetic acid], the EC50 on PPAR delta, at PPAR gamma and at PPAR alpha was more than 100 µM throughout.

In the case of `O=C(O)Cc1cccc(S(=O)(=O)N2CCN(C/C=C/c3ccccc3)CC2)c1` [Example 143, {3-[4-(3-Phenyl-allyl)-piperazine-1-sulfonyl]-phenyl}-acetic acid], the 50% effective concentration (EC50) on PPAR delta was 5 to 100 µM; on PPAR gamma, more than 100 µM; at PPAR alpha it was 5 to 100 µM.
